Numbers after ± are expanded uncertainties.
Assays:
[1] = refractive index (Na D-line) (dimensionless); mn = molality of the nth substance listed, in mol/kg; settings: 101 kPa, Liquid
[2] = osmotic coefficient (dimensionless); mn = molality of the nth substance listed, in mol/kg; settings: Liquid, vapor pressure osmometery method

CCCCn1cc[n+](C)c1.[Cl-] [1-butyl-3-methylimidazolium chloride] + O
Settings | osmotic coefficient, 298.15 K | osmotic coefficient, 308.15 K | osmotic coefficient, 318.15 K | osmotic coefficient, 328.15 K | refractive index, 298.15 K | refractive index, 308.15 K | refractive index, 318.15 K | refractive index, 328.15 K
[1], m1 = 0.0105 | – | – | – | – | 1.333 ± 0.0006 | 1.3317 ± 0.0006 | 1.3292 ± 0.0006 | 1.3273 ± 0.0006
[1], m1 = 0.023 | – | – | – | – | 1.3334 ± 0.0006 | 1.332 ± 0.0006 | 1.3295 ± 0.0006 | 1.3275 ± 0.0006
[1], m1 = 0.0289 | – | – | – | – | 1.3335 ± 0.0006 | 1.3323 ± 0.0006 | 1.3296 ± 0.0006 | 1.3277 ± 0.0006
[1], m1 = 0.0398 | – | – | – | – | 1.334 ± 0.0006 | 1.3326 ± 0.0006 | 1.33 ± 0.0006 | 1.328 ± 0.0006
[1], m1 = 0.0621 | – | – | – | – | 1.3343 ± 0.0006 | 1.333 ± 0.0006 | 1.3305 ± 0.0006 | 1.3288 ± 0.0006
[1], m1 = 0.0803 | – | – | – | – | 1.3349 ± 0.0006 | 1.3336 ± 0.0006 | 1.331 ± 0.0006 | 1.329 ± 0.0006
[1], m1 = 0.0986 | – | – | – | – | 1.3354 ± 0.0006 | 1.3341 ± 0.0006 | 1.3312 ± 0.0006 | 1.3297 ± 0.0006
[1], m1 = 0.1413 | – | – | – | – | 1.3366 ± 0.0006 | 1.3351 ± 0.0006 | 1.3325 ± 0.0006 | 1.3309 ± 0.0006
[1], m1 = 0.1816 | – | – | – | – | 1.3377 ± 0.0006 | 1.3363 ± 0.0006 | 1.3338 ± 0.0006 | 1.3319 ± 0.0006
[1], m1 = 0.2223 | – | – | – | – | 1.3388 ± 0.0006 | 1.3373 ± 0.0006 | 1.3346 ± 0.0006 | 1.3331 ± 0.0006
[1], m1 = 0.2764 | – | – | – | – | 1.3404 ± 0.0006 | 1.3389 ± 0.0006 | 1.3362 ± 0.0006 | 1.3343 ± 0.0006
[1], m1 = 0.3386 | – | – | – | – | 1.3419 ± 0.0006 | 1.3403 ± 0.0006 | 1.3377 ± 0.0006 | 1.3358 ± 0.0006
[1], m1 = 0.371 | – | – | – | – | 1.3428 ± 0.0006 | 1.3416 ± 0.0006 | 1.3387 ± 0.0006 | 1.3369 ± 0.0006
[1], m1 = 0.4863 | – | – | – | – | 1.3457 ± 0.0006 | 1.3441 ± 0.0006 | 1.3415 ± 0.0006 | 1.3398 ± 0.0006
[1], m1 = 0.599 | – | – | – | – | 1.3484 ± 0.0006 | 1.3469 ± 0.0006 | 1.3442 ± 0.0006 | 1.3422 ± 0.0006
[1], m1 = 0.7152 | – | – | – | – | 1.3512 ± 0.0006 | 1.3497 ± 0.0006 | 1.3467 ± 0.0006 | 1.3449 ± 0.0006
[1], m1 = 0.9754 | – | – | – | – | 1.3571 ± 0.0006 | 1.3562 ± 0.0006 | 1.3528 ± 0.0006 | 1.3508 ± 0.0006
[1], m1 = 1.492 | – | – | – | – | 1.3679 ± 0.0006 | 1.3661 ± 0.0006 | 1.3631 ± 0.0006 | 1.3611 ± 0.0006
[1], m1 = 2 | – | – | – | – | 1.3774 ± 0.0006 | 1.3754 ± 0.0006 | 1.3723 ± 0.0006 | 1.3703 ± 0.0006
[1], m1 = 2.962 | – | – | – | – | 1.3923 ± 0.0006 | 1.3904 ± 0.0006 | 1.3872 ± 0.0006 | 1.3849 ± 0.0006
[2], m1 = 0.0105 | 1 ± 0.012 | 0.948 ± 0.012 | 0.958 ± 0.012 | 0.978 ± 0.012 | – | – | – | –
[2], m1 = 0.023 | 0.958 ± 0.012 | 0.929 ± 0.012 | 0.932 ± 0.012 | 0.939 ± 0.012 | – | – | – | –
[2], m1 = 0.0289 | 0.932 ± 0.012 | 0.924 ± 0.012 | 0.935 ± 0.012 | 0.938 ± 0.012 | – | – | – | –
[2], m1 = 0.0398 | 0.892 ± 0.013 | 0.911 ± 0.012 | 0.916 ± 0.012 | 0.921 ± 0.012 | – | – | – | –
[2], m1 = 0.0621 | 0.855 ± 0.013 | 0.866 ± 0.013 | 0.881 ± 0.013 | 0.906 ± 0.012 | – | – | – | –
[2], m1 = 0.0803 | 0.833 ± 0.013 | 0.861 ± 0.013 | 0.869 ± 0.013 | 0.873 ± 0.013 | – | – | – | –
[2], m1 = 0.0986 | 0.827 ± 0.013 | 0.864 ± 0.013 | 0.865 ± 0.013 | 0.867 ± 0.013 | – | – | – | –
[2], m1 = 0.1413 | 0.814 ± 0.014 | 0.844 ± 0.013 | 0.857 ± 0.013 | 0.862 ± 0.013 | – | – | – | –
[2], m1 = 0.1816 | 0.789 ± 0.014 | 0.817 ± 0.014 | 0.823 ± 0.014 | 0.832 ± 0.013 | – | – | – | –
[2], m1 = 0.2223 | 0.779 ± 0.014 | 0.794 ± 0.014 | 0.807 ± 0.014 | 0.822 ± 0.014 | – | – | – | –
[2], m1 = 0.2764 | 0.772 ± 0.014 | 0.79 ± 0.014 | 0.797 ± 0.014 | 0.81 ± 0.014 | – | – | – | –
[2], m1 = 0.3386 | 0.768 ± 0.015 | 0.779 ± 0.014 | 0.798 ± 0.014 | 0.803 ± 0.014 | – | – | – | –
[2], m1 = 0.371 | 0.764 ± 0.015 | 0.775 ± 0.014 | 0.784 ± 0.014 | 0.79 ± 0.014 | – | – | – | –
[2], m1 = 0.4863 | 0.735 ± 0.015 | 0.747 ± 0.015 | 0.762 ± 0.015 | 0.775 ± 0.014 | – | – | – | –
[2], m1 = 0.599 | 0.718 ± 0.016 | 0.738 ± 0.015 | 0.75 ± 0.015 | 0.759 ± 0.015 | – | – | – | –
[2], m1 = 0.7152 | 0.716 ± 0.016 | 0.731 ± 0.015 | 0.748 ± 0.015 | 0.755 ± 0.015 | – | – | – | –
[2], m1 = 0.9754 | 0.699 ± 0.016 | 0.709 ± 0.016 | 0.723 ± 0.015 | 0.733 ± 0.015 | – | – | – | –
[2], m1 = 1.492 | 0.686 ± 0.016 | 0.692 ± 0.016 | 0.713 ± 0.016 | 0.719 ± 0.016 | – | – | – | –
[2], m1 = 2 | 0.686 ± 0.016 | 0.694 ± 0.016 | 0.706 ± 0.016 | 0.721 ± 0.016 | – | – | – | –
[2], m1 = 2.962 | 0.711 ± 0.016 | 0.721 ± 0.016 | 0.729 ± 0.015 | 0.744 ± 0.015 | – | – | – | –

Reference: the NIST ThermoML archive (doi:10.1021/je800609u)
